Measured values published in paper PMC2606048 (Bioorganic & medicinal chemistry letters, 2008).
Like-named read-outs stand apart in the source and are kept apart here. Each block holds one molecule with its values, some of them ahead of it.

Columns and labels:
[1] = test system: L1210, FM3A, Molt/4 and CEM cells; test: Antiproliferative activity summarised over the panel of four cancer cell lines; type: cell-based, murine and human; details: for IC50: read-out: IC50 (span over the four cell lines); for Antiproliferative activity (in words): four cell lines
[2] = test system: human T-lymphocyte CEM cells; test: Inhibition of proliferation of human T-lymphocyte CEM cells; type: cell-based
tubulin = test: Inhibition of tubulin polymerization; details: read-out: Tubulin assembly IC50 ± SD; Tubulin was at 10 μM
[3] = test system: murine leukemia (L1210) cells; test: Inhibition of proliferation of murine leukemia; type: cell-based
[4] = test system: K562 (human chronic myelogenous leukemia) cells; test: Flow cytometric analysis of cell cycle distribution in K562 cells; type: cell-based; details: 24 h, compound at its 24 h IC50, propidium iodide
[5] = test system: human T-lymphocyte Molt4/C8 cells; test: Inhibition of proliferation of human T-lymphocyte Molt4/C8 cells; type: cell-based
[6] = test system: K562 (human chronic myelogenous leukemia) cells; test: K562 cell growth inhibition after 24 h; type: cell-based; details: read-out: IC50 determined for 24 h of growth
[7] = test system: murine mammary carcinoma (FM3A) cells; test: Inhibition of proliferation of murine mammary carcinoma; type: cell-based

IC50 [1]: 1700 to 2100 nM
Molecule: CCN1CCc2c(sc(N)c2C(=O)c2cc(OC)c(OC)c(OC)c2)C1 [Compound 4b]

IC50 [1]: > 10000 nM
Molecule: CCCN1CCc2c(sc(N)c2C(=O)c2cc(OC)c(OC)c(OC)c2)C1 [Compound 4c]

IC50 [1]: 1600 to 4900 nM
Molecule: CNC(=S)N1CCc2c(sc(N)c2C(=O)c2cc(OC)c(OC)c(OC)c2)C1 [Compound 4s]

IC50 [1]: 4800 to 6900 nM
Molecule: CCNC(=S)N1CCc2c(sc(N)c2C(=O)c2cc(OC)c(OC)c(OC)c2)C1 [Compound 4t]

IC50 [1]: 1100 to 3900 nM
Molecule: COc1cc(C(=O)c2c(N)sc3c2CCN(C(C)=O)C3)cc(OC)c1OC [Compound 4e]

The next lines start with the molecule.

Molecule: COc1cc(C(=O)c2c(N)sc3c2CCN(Cc2ccccc2)C3)cc(OC)c1OC [Compound 4d]
IC50 [1]: > 10000 nM

Molecule: COc1cc(C(=O)c2c(N)sc3c2CCN(C(=S)NC2CCCCC2)C3)cc(OC)c1OC [Compound 4w]
IC50 [1]: 730 to 1100 nM

Molecule: 2-amino-3-(3,4,5-trimethoxybenzoyl)-6-methoxycarbonyl-4,5,6,7-tetrahydrothieno[b]pyridine [Compound 4f]
fold more potent than 4g [2]: 5 fold
IC50 (tubulin): 600 ± 20 nM
fold more potent than 4g ([3]; L1210 cells): 4 fold
Effect on cell cycle distribution [4]: marked increase in the percentage of cells blocked in the G2-M phase
fold more potent than 4g ([5]; Molt4 cells): 6 fold
IC50 ([6]; K562 cells, 24 h): 70 nM

Molecule: CCOC(=O)N1CCc2c(sc(N)c2C(=O)c2cc(OC)c(OC)c(OC)c2)C1 [Compound 4g]
Effect on cell cycle distribution [4]: marked increase in the percentage of cells blocked in the G2-M phase
IC50 [1]: 57 to 440 nM
IC50 ([6]; Homo sapiens, K562, 24 h): 80 nM

Molecule: COc1cc(C(=O)c2c(N)sc3c2CCN(C(=S)NC(C)C)C3)cc(OC)c1OC [Compound 4u]
Antiproliferative activity (in words) [1]: inactive

Molecule: COc1cc(C(=O)c2c(N)sc3ccccc23)cc(OC)c1OC [Compound 2a, reference compound]
IC50 (tubulin): 1900 ± 100 nM

Molecule: COc1cc(C(=O)c2c(N)sc3c2CCN(C(=O)NC(C)C)C3)cc(OC)c1OC [Compound 4m]
Antiproliferative activity (in words) [1]: inactive

Molecule: COc1cc(C(=O)c2c(N)sc3cnccc23)cc(OC)c1OC [Compound 5, 2-amino-3-(3′,4′,5′-trim-ethoxybenzoyl)thieno[2,3-c]pyridine]
fold less potent than 2a [2]: 13 fold
IC50 (tubulin): 5400 ± 400 nM
Effect on cell cycle distribution [4]: marked increase in the percentage of cells blocked in the G2-M phase
IC50 ([6]; Homo sapiens, K562, 24 h): 500 nM

Molecule: COc1ccc(/C=C\c2cc(OC)c(OC)c(OC)c2)cc1O [CA-4 (1), combretastatin A-4, reference compound]
IC50 ([3]; Mus musculus, L1210, read-out: IC50 L1210): 2.8 ± 1.1 nM

Molecule: CCCOC(=O)N1CCc2c(sc(N)c2C(=O)c2cc(OC)c(OC)c(OC)c2)C1 [Compound 4h]
fold reduction in activity on lengthening the alkyl chain (vs 4g) [2]: 3 fold
fold reduction in activity on lengthening the alkyl chain (vs 4g) [7]: 25 fold
fold reduction in activity on lengthening the alkyl chain (vs 4g) ([3]; L1210 cells): 10 fold
fold reduction in activity on lengthening the alkyl chain (vs 4g) ([5]; Molt-4 cells): 1.5 fold

Molecule: COc1cc(C(=O)c2c(N)sc3c2CCN(C)C3)cc(OC)c1OC [Compound 4a]
IC50 [1]: > 10000 nM
